{"source": "patent US20230041563A1", "about": "“N-(1,3,4-OXADIAZOL-2-YL)ARYLCARBOXAMIDES OR SALTS THEREOF, PREPARATION METHODS, HERBICIDAL COMPOSITIONS AND USES THEREOF” (priority 2018, published 2023)", "assay_in_all_cases": "Weeding effect in post-emergence stage (greenhouse pot spray)", "assay_type_in_all_cases": "in vivo", "key": {"Digitaria sanguinalis": {"test_system": "Digitaria sanguinalis", "excerpt": "(§1) The activity level criteria for plant damage (i.e., growth control rate) are as follows:\n(§2) The above growth control rates are fresh weight control rates.\n(§3) Experiment on weeding effect in post-emergence stage: monocotyledonous and dicotyledonous weed seeds (Descurainia sophia, Capsella bursa-pastoris, Abutilon theophrasti, Galium aparine, Stellaria media, Lithospermum arvense, rorippa indica, Alopecurus aequalis, Beckmannia syzigachne, Sclerochloa dura, Phleum paniculatum, Bromus japonicus, Aegilops tauschii, Phalaris arundinacea, Amaranthus retroflexus, Chenopodiaceae, Commelina communis, Sonchus arvensis, convolvulus arvensis, Cirsium setosum, Solanum nigrum, Acalypha australis, Digitaria sanguinalis, Echinochloa crusgalli, Setaria viridis, Setaria glauca, Leptochloa chinensis, Monochoria vaginalis, Sagittaria trifolia, Scirpus juncoides, Cyperus rotundus, Cyperus iria, Cyperus difformis, Fimbristylis, Portulaca oleracea, Xanthium sibiricum, Pharbitis nil) and major crop seeds (wheat, corn, rice, soybean, cotton, oilseed rape, millet, sorghum, potato, sesame, ricinus) were placed in plastic pots filled with soil, then covered with 0.5-2 cm of soil, allowed to grow in a good greenhouse environment. After 2 weeks of sowing, the test plants were treated in the 2 to 3 leaf stage. The tested compounds of the present invention were respectively dissolved in acetone, then added with Tween 80 and 1.5 liter/ha of emulsifiable concentrate of methyl oleate as synergist, diluted with a certain amount of water to obtain a solution with a certain concentration, and sprayed with a spray tower onto the plants. After the application, the plants were cultured for 3 weeks in the greenhouse, and then the experimental results of the weeding were counted. […]"}, "Echinochloa crusgalli": {"test_system": "Echinochloa crusgalli", "excerpt": "as §1, §2, §3"}, "Setaria viridis": {"test_system": "Setaria viridis", "excerpt": "as §1, §2, §3"}}, "data": [{"smiles": "Cc1nnc(NC(=O)c2ccc(C(F)(F)F)c([S@+]([O-])CC(C)(C)C)c2F)o1", "note": "[1-392 (R-configuration)]", "values": [{"measurement": "Digitaria sanguinahs (activity level)", "setting": "Digitaria sanguinalis; Table 3, dose 500 g a.i./ha", "value": "5 (Level 5: growth control rate is above 85%)"}, {"measurement": "Echinochloa crusgali (activity level)", "setting": "Echinochloa crusgalli; Table 3, dose 500 g a.i./ha", "value": "5 (Level 5: growth control rate is above 85%)"}, {"measurement": "Setaria viridis (activity level)", "setting": "Setaria viridis; Table 3, dose 500 g a.i./ha", "value": "5 (Level 5: growth control rate is above 85%)"}]}, {"smiles": "C=CCC[S@+]([O-])c1c(C(F)(F)F)ccc(C(=O)Nc2nnc(C)o2)c1F", "note": "[1-397 (R-configuration)]", "values": [{"measurement": "Digitaria sanguinahs (activity level)", "setting": "Digitaria sanguinalis; Table 3, dose 125 g a.i./ha", "value": "5 (Level 5: growth control rate is above 85%)"}, {"measurement": "Echinochloa crusgali (activity level)", "setting": "Echinochloa crusgalli; Table 3, dose 125 g a.i./ha", "value": "5 (Level 5: growth control rate is above 85%)"}, {"measurement": "Setaria viridis (activity level)", "setting": "Setaria viridis; Table 3, dose 125 g a.i./ha", "value": "5 (Level 5: growth control rate is above 85%)"}]}, {"smiles": "CCC[S@@+]([O-])c1c(C(F)(F)F)ccc(C(=O)Nc2nnco2)c1F", "note": "[3-8 (R-configuration)]", "values": [{"measurement": "Digitaria sanguinahs (activity level)", "setting": "Digitaria sanguinalis; Table 3, dose 60 g a.i./ha", "value": "5 (Level 5: growth control rate is above 85%)"}, {"measurement": "Echinochloa crusgali (activity level)", "setting": "Echinochloa crusgalli; Table 3, dose 60 g a.i./ha", "value": "5 (Level 5: growth control rate is above 85%)"}, {"measurement": "Setaria viridis (activity level)", "setting": "Setaria viridis; Table 3, dose 60 g a.i./ha", "value": "5 (Level 5: growth control rate is above 85%)"}]}, {"smiles": "Cc1nnc(NC(=O)c2ccc(C(F)(F)F)c([S@@+]([O-])CCC#N)c2F)o1", "note": "[1-427 (R-configuration)]", "values": [{"measurement": "Digitaria sanguinahs (activity level)", "setting": "Digitaria sanguinalis; Table 3, dose 500 g a.i./ha", "value": "5 (Level 5: growth control rate is above 85%)"}, {"measurement": "Echinochloa crusgali (activity level)", "setting": "Echinochloa crusgalli; Table 3, dose 500 g a.i./ha", "value": "5 (Level 5: growth control rate is above 85%)"}, {"measurement": "Setaria viridis (activity level)", "setting": "Setaria viridis; Table 3, dose 500 g a.i./ha", "value": "5 (Level 5: growth control rate is above 85%)"}]}, {"smiles": "Cc1nnc(NC(=O)c2ccc(C(F)(F)F)c([S@@+]([O-])CCO)c2F)o1", "note": "[1-429 (R-configuration)]", "values": [{"measurement": "Digitaria sanguinahs (activity level)", "setting": "Digitaria sanguinalis; Table 3, dose 500 g a.i./ha", "value": "5 (Level 5: growth control rate is above 85%)"}, {"measurement": "Echinochloa crusgali (activity level)", "setting": "Echinochloa crusgalli; Table 3, dose 500 g a.i./ha", "value": "5 (Level 5: growth control rate is above 85%)"}, {"measurement": "Setaria viridis (activity level)", "setting": "Setaria viridis; Table 3, dose 500 g a.i./ha", "value": "5 (Level 5: growth control rate is above 85%)"}]}, {"smiles": "Cc1nnc(NC(=O)c2ccc(C(F)(F)F)c([S@@+]([O-])CCC(F)F)c2F)o1", "note": "[1-405 (R-configuration)]", "values": [{"measurement": "Digitaria sanguinahs (activity level)", "setting": "Digitaria sanguinalis; Table 3, dose 125 g a.i./ha", "value": "5 (Level 5: growth control rate is above 85%)"}, {"measurement": "Echinochloa crusgali (activity level)", "setting": "Echinochloa crusgalli; Table 3, dose 125 g a.i./ha", "value": "5 (Level 5: growth control rate is above 85%)"}, {"measurement": "Setaria viridis (activity level)", "setting": "Setaria viridis; Table 3, dose 125 g a.i./ha", "value": "5 (Level 5: growth control rate is above 85%)"}]}, {"smiles": "CCCC[S@+]([O-])c1c(C(F)(F)F)ccc(C(=O)Nc2nnco2)c1F", "note": "[3-14 (R-configuration)]", "values": [{"measurement": "Digitaria sanguinahs (activity level)", "setting": "Digitaria sanguinalis; Table 3, dose 60 g a.i./ha", "value": "5 (Level 5: growth control rate is above 85%)"}, {"measurement": "Echinochloa crusgali (activity level)", "setting": "Echinochloa crusgalli; Table 3, dose 60 g a.i./ha", "value": "5 (Level 5: growth control rate is above 85%)"}, {"measurement": "Setaria viridis (activity level)", "setting": "Setaria viridis; Table 3, dose 60 g a.i./ha", "value": "5 (Level 5: growth control rate is above 85%)"}]}, {"smiles": "COCC[S@+]([O-])c1c(C(F)(F)F)ccc(C(=O)Nc2nnc(C)o2)c1F", "note": "[1-57 (R-configuration)]", "values": [{"measurement": "Digitaria sanguinahs (activity level)", "setting": "Digitaria sanguinalis; Table 3, dose 125 g a.i./ha", "value": "5 (Level 5: growth control rate is above 85%)"}, {"measurement": "Echinochloa crusgali (activity level)", "setting": "Echinochloa crusgalli; Table 3, dose 125 g a.i./ha", "value": "5 (Level 5: growth control rate is above 85%)"}, {"measurement": "Setaria viridis (activity level)", "setting": "Setaria viridis; Table 3, dose 125 g a.i./ha", "value": "5 (Level 5: growth control rate is above 85%)"}]}, {"smiles": "Cc1nnc(NC(=O)c2ccc(C(F)(F)F)c([S@@+]([O-])CC(C)O)c2F)o1", "note": "(stereo partly drawn) [1-431 (R-configuration)]", "values": [{"measurement": "Digitaria sanguinahs (activity level)", "setting": "Digitaria sanguinalis; Table 3, dose 500 g a.i./ha", "value": "5 (Level 5: growth control rate is above 85%)"}, {"measurement": "Echinochloa crusgali (activity level)", "setting": "Echinochloa crusgalli; Table 3, dose 500 g a.i./ha", "value": "5 (Level 5: growth control rate is above 85%)"}, {"measurement": "Setaria viridis (activity level)", "setting": "Setaria viridis; Table 3, dose 500 g a.i./ha", "value": "5 (Level 5: growth control rate is above 85%)"}]}, {"smiles": "C/C=C/C[S@@+]([O-])c1c(C(F)(F)F)ccc(C(=O)Nc2nnc(C)o2)c1F", "note": "[1-398 (R-configuration)]", "values": [{"measurement": "Digitaria sanguinahs (activity level)", "setting": "Digitaria sanguinalis; Table 3, dose 250 g a.i./ha", "value": "5 (Level 5: growth control rate is above 85%)"}, {"measurement": "Echinochloa crusgali (activity level)", "setting": "Echinochloa crusgalli; Table 3, dose 250 g a.i./ha", "value": "5 (Level 5: growth control rate is above 85%)"}, {"measurement": "Setaria viridis (activity level)", "setting": "Setaria viridis; Table 3, dose 250 g a.i./ha", "value": "5 (Level 5: growth control rate is above 85%)"}]}, {"smiles": "Cc1nnc(NC(=O)c2ccc(C(F)(F)F)c([S@@+]([O-])CCCC#N)c2F)o1", "note": "[1-428 (R-configuration)]", "values": [{"measurement": "Digitaria sanguinahs (activity level)", "setting": "Digitaria sanguinalis; Table 3, dose 500 g a.i./ha", "value": "5 (Level 5: growth control rate is above 85%)"}, {"measurement": "Echinochloa crusgali (activity level)", "setting": "Echinochloa crusgalli; Table 3, dose 500 g a.i./ha", "value": "5 (Level 5: growth control rate is above 85%)"}, {"measurement": "Setaria viridis (activity level)", "setting": "Setaria viridis; Table 3, dose 500 g a.i./ha", "value": "5 (Level 5: growth control rate is above 85%)"}]}]}
